Key:
Assay in all cases: relative viability (nuclei count vs DMSO), 5 days (fraction); higher = more cells survive
LOU-NH91 = system: LOU-NH91
Method in brief: (§1)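 The day after seeding in 1536-well plates, lung cancer cell lines were treated by pin tool with a single drug, or with a fixed anchor-drug dose together with five library-drug doses (not always all listed) in √10 steps. After 5 days, a combined fix-and-stain solution (final 0.05% Triton X-100, 1% formaldehyde, 1 ug/ml Hoechst) was added. Nuclei counted on 4× images gave relative viability as treated counts over vehicle counts, reported as the median of duplicate plates.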

NCI-H1395 = system: NCI-H1395
Method in brief: as §1

NCI-H2087 = system: NCI-H2087
Method in brief: as §1

NCI-H2126 = system: NCI-H2126
Method in brief: as §1

HARA = system: HARA
Method in brief: as §1

NCI-H2170 = system: NCI-H2170
Method in brief: as §1

RERF-LC-KJ = system: RERF-LC-KJ
Method in brief: as §1

NCI-H1993 = system: NCI-H1993
Method in brief: as §1

HOP-62 = system: HOP-62
Method in brief: as §1

COR-L 105 = system: COR-L 105
Method in brief: as §1

EMC-BAC-2 = system: EMC-BAC-2
Method in brief: as §1

BEN = system: BEN
Method in brief: as §1

UMC-11 = system: UMC-11
Method in brief: as §1

LXF-289 = system: LXF-289
Method in brief: as §1

H3255 = system: H3255
Method in brief: as §1

201T = system: 201T
Method in brief: as §1

SW 900 = system: SW 900
Method in brief: as §1

SK-MES-1 = system: SK-MES-1
Method in brief: as §1

NCI-H650 = system: NCI-H650
Method in brief: as §1

LC-2-ad = system: LC-2-ad
Method in brief: as §1

LU99A = system: LU99A
Method in brief: as §1

NCI-H1563 = system: NCI-H1563
Method in brief: as §1

Cc1csc(=NC2CCCCC2)n1/N=C/c1ccc(O)c(O)c1O [MIM1] + CCNC(=O)c1noc(-c2cc(C(C)C)c(O)cc2O)c1-c1ccc(CN2CCOCC2)cc1 [Luminespib] (partner 0.01 µM)
relative viability (LOU-NH91; first compound 0.2 µM): 0.338
relative viability (LOU-NH91; first compound 0.6325 µM): 0.338
relative viability (LOU-NH91; first compound 2 µM): 0.32
relative viability (LOU-NH91; first compound 6.325 µM): 0.271
relative viability (LOU-NH91; first compound 20 µM): 0.268
relative viability (NCI-H1395; first compound 0.2 µM): 0.66
relative viability (NCI-H1395; first compound 0.6325 µM): 0.547
relative viability (NCI-H1395; first compound 2 µM): 0.755
relative viability (NCI-H1395; first compound 6.325 µM): 0.573
relative viability (NCI-H1395; first compound 20 µM): 0.293
relative viability (NCI-H2087; first compound 0.2 µM): 0.145
relative viability (NCI-H2087; first compound 0.6325 µM): 0.183
relative viability (NCI-H2087; first compound 2 µM): 0.199
relative viability (NCI-H2087; first compound 6.325 µM): 0.176
relative viability (NCI-H2087; first compound 20 µM): 0.132
relative viability (NCI-H2126; first compound 0.2 µM): 0.891
relative viability (NCI-H2126; first compound 0.6325 µM): 0.943
relative viability (NCI-H2126; first compound 2 µM): 0.957
relative viability (NCI-H2126; first compound 6.325 µM): 0.88
relative viability (NCI-H2126; first compound 20 µM): 0.466
relative viability (HARA; first compound 0.2 µM): 0.866
relative viability (HARA; first compound 2 µM): 0.776
relative viability (HARA; first compound 6.325 µM): 0.251
relative viability (HARA; first compound 20 µM): 0.0856
relative viability (NCI-H2170; first compound 0.2 µM): 0.707
relative viability (NCI-H2170; first compound 0.6325 µM): 0.497
relative viability (NCI-H2170; first compound 2 µM): 0.729
relative viability (NCI-H2170; first compound 6.325 µM): 0.473
relative viability (NCI-H2170; first compound 20 µM): 0.434
relative viability (RERF-LC-KJ; first compound 0.2 µM): 1.21
relative viability (RERF-LC-KJ; first compound 0.6325 µM): 1.26
relative viability (RERF-LC-KJ; first compound 2 µM): 0.73
relative viability (RERF-LC-KJ; first compound 6.325 µM): 0.416
relative viability (RERF-LC-KJ; first compound 20 µM): 0.284
relative viability (NCI-H1993; first compound 0.2 µM): 0.441
relative viability (NCI-H1993; first compound 0.6325 µM): 0.663
relative viability (NCI-H1993; first compound 2 µM): 0.652
relative viability (NCI-H1993; first compound 6.325 µM): 0.633
relative viability (NCI-H1993; first compound 20 µM): 0.499
relative viability (HOP-62; first compound 0.2 µM): 1.01
relative viability (HOP-62; first compound 0.6325 µM): 0.841
relative viability (HOP-62; first compound 2 µM): 0.893
relative viability (HOP-62; first compound 6.325 µM): 0.758
relative viability (HOP-62; first compound 20 µM): 0.301
relative viability (COR-L 105; first compound 0.2 µM): 0.721
relative viability (COR-L 105; first compound 0.6325 µM): 0.918
relative viability (COR-L 105; first compound 2 µM): 0.813
relative viability (COR-L 105; first compound 6.325 µM): 0.642
relative viability (COR-L 105; first compound 20 µM): 0.801
relative viability (EMC-BAC-2; first compound 0.2 µM): 1.12
relative viability (EMC-BAC-2; first compound 0.6325 µM): 1.14
relative viability (EMC-BAC-2; first compound 2 µM): 1.13
relative viability (EMC-BAC-2; first compound 6.325 µM): 1.03
relative viability (EMC-BAC-2; first compound 20 µM): 0.423
relative viability (BEN; first compound 0.2 µM): 0.249
relative viability (BEN; first compound 0.6325 µM): 1.24
relative viability (BEN; first compound 2 µM): 0.36
relative viability (BEN; first compound 6.325 µM): 0.329
relative viability (BEN; first compound 20 µM): 0.173
relative viability (UMC-11; first compound 0.2 µM): 1.03
relative viability (UMC-11; first compound 2 µM): 1.23
relative viability (UMC-11; first compound 6.325 µM): 0.686
relative viability (UMC-11; first compound 20 µM): 0.369
relative viability (LXF-289; first compound 0.2 µM): 0.708
relative viability (LXF-289; first compound 0.6325 µM): 0.649
relative viability (LXF-289; first compound 2 µM): 0.659
relative viability (LXF-289; first compound 6.325 µM): 0.54
relative viability (LXF-289; first compound 20 µM): 0.453
relative viability (H3255; first compound 0.2 µM): 0.865
relative viability (H3255; first compound 0.6325 µM): 0.85
relative viability (H3255; first compound 2 µM): 0.798
relative viability (H3255; first compound 6.325 µM): 0.769
relative viability (H3255; first compound 20 µM): 0.34
relative viability (201T; first compound 0.2 µM): 1.03
relative viability (201T; first compound 0.6325 µM): 1.05
relative viability (201T; first compound 2 µM): 1.03
relative viability (201T; first compound 6.325 µM): 0.548
relative viability (201T; first compound 20 µM): 0.368
relative viability (SW 900; first compound 0.2 µM): 0.174
relative viability (SW 900; first compound 0.6325 µM): 0.199
relative viability (SW 900; first compound 2 µM): 0.19
relative viability (SW 900; first compound 6.325 µM): 0.185
relative viability (SW 900; first compound 20 µM): 0.2
relative viability (SK-MES-1; first compound 0.2 µM): 0.754
relative viability (SK-MES-1; first compound 0.6325 µM): 0.828
relative viability (SK-MES-1; first compound 2 µM): 0.708
relative viability (SK-MES-1; first compound 6.325 µM): 0.55
relative viability (SK-MES-1; first compound 20 µM): 0.215
relative viability (NCI-H650; first compound 0.2 µM): 0.822
relative viability (NCI-H650; first compound 0.6325 µM): 0.619
relative viability (NCI-H650; first compound 2 µM): 0.85
relative viability (NCI-H650; first compound 6.325 µM): 0.704
relative viability (NCI-H650; first compound 20 µM): 0.288
relative viability (LC-2-ad; first compound 0.2 µM): 1.06
relative viability (LC-2-ad; first compound 0.6325 µM): 0.964
relative viability (LC-2-ad; first compound 2 µM): 0.727
relative viability (LC-2-ad; first compound 6.325 µM): 0.485
relative viability (LC-2-ad; first compound 20 µM): 0.233
relative viability (LU99A; first compound 0.2 µM): 0.227
relative viability (LU99A; first compound 0.6325 µM): 0.317
relative viability (LU99A; first compound 2 µM): 0.26
relative viability (LU99A; first compound 6.325 µM): 0.308
relative viability (LU99A; first compound 20 µM): 0.219
relative viability (NCI-H1563; first compound 0.2 µM): 0.51
relative viability (NCI-H1563; first compound 0.6325 µM): 0.607
relative viability (NCI-H1563; first compound 2 µM): 0.519
relative viability (NCI-H1563; first compound 6.325 µM): 0.553
relative viability (NCI-H1563; first compound 20 µM): 0.362
